Calls of active or inactive are those of the source. No rule for the calls is given here.
Assay: PubChem AID 624076
Conditions: Carna kinase panel, IMAP FP / mobility shift, at 10 µM, hits give high values

In the case of `Cc1cnc(-c2cnc(NCCNc3ccc(C#N)cn3)nc2-c2ccc(Cl)cc2Cl)[nH]1`, the inhibition (ABL(E255K)) is reported as -2.21% (inactive), the inhibition (ABL(T315I)) is reported as 3.27% (inactive) and the inhibition (AKT2) is reported as 0.832% (inactive). The inhibition (AKT3) was 0% (inactive), the inhibition (ALK(R1275Q)) was -2.15% (inactive) and the inhibition (ARG) was -1.99% (inactive). For the same compound, the inhibition (AXL) was 6.91% (inactive), the inhibition (AurB) was 2.87% (inactive) and the inhibition (AurC) was 6.65% (inactive). The inhibition (BMPR1A) was -9.7% (inactive), the inhibition (BRAF(V600E)) was 14% (inactive) and the inhibition (BRAF) was 53.8%. For the same compound, the inhibition (BRK) was -3.52% (inactive), the inhibition (BRSK1) was 10.2% (inactive) and the inhibition (BTK) was -3.98% (inactive). The inhibition (CDC7) was -7.36% (inactive), the inhibition (CDK3) was 42.4% (inactive) and the inhibition (CDK5) was 51.2%. The inhibition (CDK9) was 88.1%, the inhibition (CHK2) was 4.54% (inactive) and the inhibition (CK1e) was 10.4% (inactive). The inhibition (CK1g1) was 85.8%, the inhibition (CK2a2/b) was 48.7% (inactive) and the inhibition (CK1d) was 23.2% (inactive). The inhibition (CLK1) was 70.5%, the inhibition (CLK2) was 47.6% (inactive) and the inhibition (COT) was -1.49% (inactive). For the same compound, the inhibition (CRIK) was 1.36% (inactive), the inhibition (CTK) was -2.12% (inactive) and the inhibition (CaMK2b) was 0.457% (inactive). For the same compound, the inhibition (CaMK4) was 6.27% (inactive), the inhibition (CaMK1d) was 2.64% (inactive) and the inhibition (DAPK1) was 0.121% (inactive). For the same compound, the inhibition (DCAMKL2) was 4.09% (inactive), the inhibition (DLK) was -12.2% (inactive) and the inhibition (DYRK1B) was 20.8% (inactive). The inhibition (DYRK2) was 17.2% (inactive), the inhibition (EGFR(L861Q)) was 1.1% (inactive) and the inhibition (EML4-ALK) was -2.55% (inactive). The inhibition (EPHA3) was -5.65% (inactive), the inhibition (EPHA5) was -4.24% (inactive) and the inhibition (EPHA8) was -7.66% (inactive). The inhibition (EPHB1) was 0.223% (inactive), the inhibition (EPHB4) was -0.865% (inactive) and the inhibition (FGFR1) was 13.1% (inactive). The inhibition (FGFR3(K650E)) was 12.5% (inactive), the inhibition (FGFR3(K650M)) was 11.8% (inactive) and the inhibition (FGFR4(N535K)) was 3.65% (inactive). The inhibition (FGFR4(V550L)) was 7.1% (inactive), the inhibition (FGFR4) was 1.13% (inactive) and the inhibition (FLT4) was 40.4% (inactive). The inhibition (FMS) was 9.78% (inactive), the inhibition (GSK3a) was 99.9% and the inhibition (HER4) was -8.68% (inactive). For the same compound, the inhibition (HIPK1) was 15.1% (inactive), the inhibition (HIPK3) was 11% (inactive) and the inhibition (Haspin) was 9.76% (inactive). For the same compound, the inhibition (IGF1R) was 0.373% (inactive), the inhibition (IKKb) was 7.11% (inactive) and the inhibition (IRAK4) was -0.123% (inactive). The inhibition (IRR) was 2.61% (inactive), the inhibition (JAK2) was 5.28% (inactive) and the inhibition (JAK3) was 18.1% (inactive). The inhibition (JNK1) was 11.5% (inactive), the inhibition (JNK2) was 18.8% (inactive) and the inhibition (JNK3) was 16.9% (inactive). For the same compound, the inhibition (KIT(T670I)) was 2.37% (inactive), the inhibition (KIT(V560G)) was 8.71% (inactive) and the inhibition (KIT) was 5.43% (inactive). For the same compound, the inhibition (LATS2) was 9.73% (inactive), the inhibition (LKB1) was 16.6% (inactive) and the inhibition (LOK) was 4.96% (inactive). The inhibition (LTK) was -0.743% (inactive), the inhibition (LYNa) was 0.071% (inactive) and the inhibition (MAP2K5) was -7.9% (inactive). For the same compound, the inhibition (MAP3K1) was 8.06% (inactive), the inhibition (MAP3K3) was -21.6% (inactive) and the inhibition (MAP4K2) was 12.9% (inactive). For the same compound, the inhibition (MARK2) was 13.3% (inactive), the inhibition (MARK4) was 15.4% (inactive) and the inhibition (MELK) was 53.5%. For the same compound, the inhibition (MER) was 3.47% (inactive), the inhibition (MGC42105) was 6.7% (inactive) and the inhibition (MINK) was 4.57% (inactive). For the same compound, the inhibition (MLK1) was 51.4%, the inhibition (MLK2) was 0.179% (inactive) and the inhibition (MOS) was 5.27% (inactive). The inhibition (MSK1) was 7.16% (inactive), the inhibition (MST2) was 5.83% (inactive) and the inhibition (MST4) was 8.12% (inactive). The inhibition (NDR1) was 2.42% (inactive), the inhibition (NEK1) was 15.9% (inactive) and the inhibition (NEK2) was 8.33% (inactive). For the same compound, the inhibition (NEK6) was 2.28% (inactive), the inhibition (NEK7) was -3.45% (inactive) and the inhibition (PAK3) was 14.2% (inactive). The inhibition (PAK4) was -9.87% (inactive), the inhibition (PAK5) was 7.25% (inactive) and the inhibition (PASK) was 8.83% (inactive). The inhibition (PBK) was 3.01% (inactive), the inhibition (PDGFRa(V561D)) was 27% (inactive) and the inhibition (PEK) was 23.7% (inactive). The inhibition (PGK) was -2.42% (inactive), the inhibition (PHKG1) was 6.01% (inactive) and the inhibition (PIM3) was -2.3% (inactive). For the same compound, the inhibition (PKACg) was 2.06% (inactive), the inhibition (PKCb2) was 10.5% (inactive) and the inhibition (PKCd) was 15.8% (inactive). For the same compound, the inhibition (PKCg) was 8.43% (inactive), the inhibition (PKD1) was 24.8% (inactive) and the inhibition (PKD2) was 19.5% (inactive). For the same compound, the inhibition (PKD3) was 40.8% (inactive), the inhibition (PKN1) was 14.8% (inactive) and the inhibition (PLK1) was 59.2%. The inhibition (PLK4) was -13.5% (inactive), the inhibition (PRKX) was 3.31% (inactive) and the inhibition (RET(S891A)) was 32.1% (inactive). For the same compound, the inhibition (RET(Y791F)) was 12.8% (inactive), the inhibition (ROCK1) was 0.774% (inactive) and the inhibition (ROCK2) was 1.96% (inactive). The inhibition (ROS) was 11.2% (inactive), the inhibition (RSK1) was 19.3% (inactive) and the inhibition (RSK2) was 19.9% (inactive). The inhibition (RSK4) was 30.6% (inactive), the inhibition (SGK3) was 0.522% (inactive) and the inhibition (SIK) was 2.55% (inactive). For the same compound, the inhibition (SLK) was 43.3% (inactive), the inhibition (SRC) was 2.22% (inactive) and the inhibition (SRM) was -1.3% (inactive). For the same compound, the inhibition (SRPK1) was 17.3% (inactive), the inhibition (SYK) was 1.08% (inactive) and the inhibition (TAK1-TAB1) was 34.1% (inactive). The inhibition (TIE2) was 4.06% (inactive), the inhibition (TNK1) was 27.1% (inactive) and the inhibition (TRKA) was 9.49% (inactive). For the same compound, the inhibition (TSSK3) was -3.5% (inactive), the inhibition (TTK) was -10.8% (inactive) and the inhibition (TYK2) was -0.177% (inactive). The inhibition (WNK2) was 3.23% (inactive) and the inhibition (p38d) was 2.62% (inactive).

Source: PubChem BioAssay AID624076 (Broad Institute, 2012)
